US20090137427A1, “Method for generating hypermutable organisms” (The John Hopkins University School of Medicine, priority 2000, published 2009)

Assays:
Format in all cases: cell-based, human
HCT116 cells = experiment: β-gal positive foci in pCAROF-transfected MMR defective cells exposed to chemical mutagen; conditions: 10 μM for 8 hours, 1,000 cells/plate, grown 10 days, triplicate
Text: To enhance the rate of genetic mutations and produce cells with altered genes, RNA expression, or polypeptides, the use of MMR deficiency and chemical mutagens is a powerful tool to generate such diversity. The advantages of using MMR defective cells is that the decrease of this activity renders cells more resistant to the toxic effects of such compounds yet allows for the increase in genetic and phenotypic alterations of a host organism or cell. […] Cells that are genetically defective for MMR such as but not limited to HCT116, DLD-1, etc. or cells such as those described in example 1 and 2 that are made MMR defective by ectopic expression of a dominant negative allele is covered under this invention. Briefly, MMR proficient and deficient cells are incubated with a range (1 nm to 1 mM) of chemical mutagens for 1 hour to 24 hours at 37 C at 5% CO2 in growth medium. After incubation is complete, chemical mutagens are washed from medium and cells are grown in the presence of hypoxanthine, aminopterin, and […] to score for HPRT mutant cells as previously described (Walker, V E et. al. Mutat Res. 17:371-388, 1999.) and known to those skilled in the art. […] After 14 days, the numbers of HAT-resistant colonies are determined by counting under the microscope. […] Cells were grown for 10 days and scored for β-gal activity using methods described in EXAMPLE 1. […]

[1] = tested on: HCT116 cells expressing PNP; experiment: MPD killing assay; conditions: 50-300 μM, 10 days
Text: (§1) The use of cells with defective MMR repair due to defects of endogenous genes such as but not limited to the HCT116, DLD-1, and HEC-1-A cells lines (ref. 12, 25 and Kondo, et. al. J Biochem 125:818-825, 1999) can be useful for altering the genetic structure of genes to produce commercially viable variant molecules such as novel anti-microbial agents, bioactive growth factors or hormones, altered antibody structures, etc. The utility and value of such a cell is that once an altered gene structure has been produced, the integrity of this gene alteration can be preserved in the cell's genome by making the cell genetically stable via the introduction of a functional complementing MMR gene. […] The polyPNP gene encodes for a non-functional PNP gene. When the poly-A tract is randomly altered by genetic alterations due to defective MMR, the tract is randomly altered, allowing for the production of a functional PNP gene and polypeptide. PNP converts the non-toxic 9-(β-D-2-deoxy-erythro-pento-furanosyl)-6-methyl-purine prodrug (referred to as MPD) substrate to the toxic 6-methyl purine analog (referred to as MP) (Sorscher, E J, et. al. Gene Therapy 1:233-238, 1994). The polyPNP gene was engineered to contain a hemaglutinin epitope tag at the C-terminus to facilitate the detection of the encoded polypeptide via western blot analysis using an anti-HA antibody. The polyPNP gene was cloned into the pCEP4 expression vector, which has a hygromycin resistance (Hyg) gene for selection. A homologous gene called PNP was also made in which an in-frame polyA tract is cloned into the N-terminus of the gene as a positive control for PNP activity. Briefly, the MMR defective HCT116 cell line and the MMR proficient HEK293 cell line were transfected with the polyPNP, the PNP expression vector, or an empty pCEP4 vector. Cells were then selected for Hyg resistance and clones were isolated. Expanded cells were grown in the presence of increasing amounts of MPD (0, 1, 10, 50, 100, 300 μM) for 10 days. After treatment period, cells were counted by hemocytometer and trypan blue exclusion.
(§2) Cells were transfected with PNP and/or MLH1 expression vectors using liposomes following the manufacturer's protocol (Gibco/BRL). Stably transfected cell lines were generated that express empty vector, PNP or polyPNP by transfection followed by hygromycin selection. For complementation experiments, HCT116 cells were transfected with PNP/MLH1, PNP/MLH1stop, polyPNP/MLH1 or polyPNP/MLH1 stop at a 1:1 ratio using 5 μg of each plasmid and cells were selected for hygromycin and neomycin resistance. After 10 days, drug-resistant colonies were observed and picked for analysis.
(§3) For MPD killing assay, cells were plated at 2×10^4 cell/ml and 1 ml aliquots were plated in 24-well costar tissue culture dishes. For killing assays, cells were plated in 0, 1, 10, 50, 100, and 300 μM MPD in triplicate. Cells were grown for 10 days trypsinized and counted on hemocytometer using trypan blue exclusion. Data are presented as a mean+/−SD for each study.

HCT116/polyPNP cells = experiment: MPD killing assay; conditions: 10 days
Text: as §1, §2, §3

[2] = tested on: HEK293 cells expressing PNP; experiment: MPD killing assay; conditions: 50-300 μM, 10 days
Text: as §1, §2, §3

HEK293/polyPNP cells = experiment: MPD killing assay; conditions: highest concentration (300 μM), 10 days
Text: as §1, §2, §3

[3] = tested on: HCT116 cells cotransfected with polyPNP and pC9MLH constructs; experiment: MPD killing assay, MLH1 complementation; conditions: 300 μM
Text: The restoration of genetic stability and the subsequent imprint of an altered gene locus or loci is an important invention of this application for producing viable biological products, whereby altered biomolecules, cells or whole organisms with desired altered output traits are made genetically stable for long term use. To generate stable MMR defective cell lines that has or has not been exposed to chemical mutagens and selected for desired genetic changes, the introduction of a complementing MMR gene that can substitute for the mutated endogenous MMR gene locus is taught in this application. […] In this example, a mammalian expression vector is used that encodes for the functional MLH1 polypeptide (pC9MLH1) or an expression vector that encodes for a MLH1 cDNA with a premature stop codon (pC9MLHstop). These expression vectors contain a neomycin (neo) resistance gene that allows for selection of cells containing this vector. […] Cells were selected for 10 days in neo and Hyg and resistant clones were isolated and expanded. Cells were then cultured in the presence of MPD and counted for growth after 10 days. […]
For MPD killing assay, cells were plated at 2×10^4 cell/ml and 1 ml aliquots were plated in 24-well costar tissue culture dishes. […] Cells were grown for 10 days trypsinized and counted on hemocytometer using trypan blue exclusion. […]

SMILES	number of β-gal positive foci (HCT116 cells)	growth suppression [1]	decrease in cell numbers (HCT116/polyPNP cells; 100 μM)	decrease in cell numbers (HCT116/polyPNP cells; 300 μM)	growth suppression [2]	decrease in cell growth (in words) (HEK293/polyPNP cells)	decrease in total cell growth compared to medium alone ([3]; cells expressing MLH1 (pC9MLH1) plus polyPNP)	reduction in cell growth compared to medium alone ([3]; cells transfected with MLHstop or empty vector and polyPNP)
CCOS(C)(=O)=O [EMS, ethyl methanesulfonate]	205+/−18 per dish	–	–	–	–	–	–	–
Cc1ncnc2c1ncn2[C@H]1C[C@H](O)[C@@H](CO)O1 [MPD, 9-(β-D-2-deoxyerythropentofuranosyl)-6-methyl-purine]	–	100%	20%	30%	100%	no decrease in cell growth	2%	35%
